Laboratory results from patent US11591284B2, “Compounds for the treatment of neuromuscular disorders” (NMD Pharma A/S, priority 2017, dated 2023).
Read-outs that look alike come from different tables or passages of the source.

Experiments:
[1] = test system: isolated rat soleus muscles; experiment: Recovery of nerve-stimulated force in isolated rat soleus muscles exposed to sub-maximal tubocurarine; details: for 500 μM % change after addition: 500 μM compound
Procedure: FIGS. 3A-3B. […] The motor nerve was stimulated every 10 min for 2 s with 30 Hz with field stimulation using short duration pulses. […] Traces are shown before addition tubocurarine, after 40 min with tubocurarine, and after 110 min tubocurarine. […] This recovery of force was used in Table 1.
(§1) In all contraction experiments, isometric force production was determined and force produced during contractions was quantified by measuring the integral of the force response (AUC). Stimulation and force recordings have been described elsewhere. […] In these latter experiments, extracellular recordings of action potentials (M-waves) could be measured without temporal overlap with stimulation artefacts.
(§2) To initially confirm that inhibition of CIC-1 ion channels can be used to recover contractile force in muscle with reduced neuromuscular transmission, isolated nerve-muscle preparations were first exposed to either tubocurarine (FIG. 2A) or elevated Mg^2+ (FIG. 2B) and then a specific CIC-1 inhibitor (9-AC) was added.
To identify CIC-1 inhibitors that could be used for treatment of neuromuscular disorders we repeated the experiment shown in FIG. 2A but instead of adding 9-AC we added the compounds of interest in different concentrations within the range from 10 to 500 μM. […] For comparison with the muscle only exposed to tubocurarine (grey trace), the two traces have been overlaid. […] For comparison, muscles only exposed to tubocurarine have been included. The dotted line indicates the recovery of force with C8 when compared to the force production before its addition. This value was used in Table 1 for evaluation of the efficacy of the different compounds in recovering force.

[2] = test system: isolated rat soleus muscles; experiment: Recovery of nerve-stimulated force in isolated rat soleus muscles exposed to 3.5 mM Mg2+
Procedure: as §1
The aim was to find compounds that by inhibition of CIC-1 channels can recover nerve-stimulated force under conditions of fatigue including conditions where fatigue is caused by compromised neuromuscular transmission. Neuromuscular transmission dysfunction can develop because of both pre- and/or post-synaptic complications in connection with a disorder or as part of neuromuscular blockade during/after surgery. In the initial series of drug testing, experiments were performed with isolated muscles in the presence of sub-maximal ACh receptor antagonist tubocurarine. Since the inclusion of tubocurarine caused a partial loss of neuromuscular transmission this experiment mimics the conditions in myasthenia gravis and neuromuscular blockade. To mimic conditions with pre-synaptic complication (Lambert Eaton syndrome, motor neuron disorder, polyneuropathy) the intact nerve-muscle preparations were incubated at elevated extracellular Mg^2+, which is known to suppress release of ACh from nerve terminals of motor neurons.
as §2
The next series of experiments determined whether the compounds that recovered nerve-stimulated force in the presence of tubocurarine could also recover nerve-stimulated force at elevated extracellular Mg^2+.

[3] = test system: isolated rat soleus muscles; experiment: Recovery of nerve-stimulated force in isolated rat soleus muscles with ACh receptors inhibited by 2 μM rocuronium; details: 50 μM compound added after 2 μM rocuronium had reduced force to 51±5%; 8 muscles; p<0.01
Procedure: In a separate series of experiments with 8 isolated rat soleus muscles, ACh receptors were inhibited using 2 μM rocuronium, which is a clinically used neuromuscular blocking agent. Under these conditions the nerve-stimulated force was reduced to 51±5% of force before rocuronium. […] This illustrates the potential of these compounds to be used as reversal agents.

[4] = Pharmacokinetic analysis of a single I.P. dose in rats; format: in vivo, Sprague-Dawley rats; details: rat, single I.P. dose 10 mg/kg, plasma
Procedure: This part of the study was performed by Pipeline Biotech A/S (Spørring, Denmark). […] Plasma concentrations (free and bound) were determined by OnTarget Chemistry (Uppsala, Sweden, Project No.: PB243-001).
Before conducting in vivo experiments with animal models of myasthenia gravis, some pharmacokinetic details were obtained for C8 in response to one-bolus I.P. injection.

[5] = test system: rat soleus muscle; format: cell-based; details: 10 and 25 μM; 1 μM μ-conotoxin GiiiB
[6] = test system: rats; experiment: Rotarod running performance of rats after I.P. tubocurarine; format: in vivo, rat; details: 20 mg/kg I.P., 2 hrs before tubocurarine (0.13 mg/kg I.P.); tested 21 min after tubocurarine; sham around 2%
Procedure: FIGS. 9A-9B. […] FIG. 9A illustrates the design of the experiments. Prior to Day One the animals had been familiarized to the rotarod in three training sessions distributed over two days.
(§3) In both series of experiments, running performance was tested on a rotarod using a protocol where the rod was accelerated gradually over a 5 min period, and the running time and covered distance before falling off the rod were measured. […] Experiments with tubocurarine were carried out over two days, and on each day the effect of tubocurarine on running performance was tested. On the first day only tubocurarine was injected. […] On the second day, the animals were first allowed to run on the rotarod, and all animals performed normally. […] The allocation of the animals into the two groups (C8 or sham) was random and unknown to the experimenter (blinded experimental design).
In the first series of in vivo experiments, myasthenia gravis was simply mimicked by I.P. injection of tubocurarine (0.13 mg/kg) in animals that had been familiarized to running on the rotarod. On the first of two consecutive days, tubocurarine was injected I.P. and the running performance of the animal was tested 21 minutes after this injection. On the second day of experimentation, the animals first performed a test run to ensure that they were no longer affected by the tubocurarine injected the day before. […]

[7] = test system: soleus muscles; experiment: Mg2+ concentration required to depress nerve-stimulated force by 50% (Kd,Mg2+) in soleus muscles; parameters: species or system rat; details: combination of C8 and 3,4-diaminopyridine
Procedure: FIGS. 6A-6E. […] Muscles from 4-week-old rats were stimulated to contract by activating the motor nerve with short duration pulses in field stimulation. Muscles contracted every 10 min for 2 s in response to 30 Hz stimulation. Four different experimental conditions were used. […] C) similar to A) but this muscle had been pre-incubated with 3,4-AP. […] The force integral (AUC) was determined at each extracellular Mg^2+ concentration. AUC was plotted against Mg^2+ concentration and the data was fitted to a sigmoidal function. This provided the extracellular Mg^2+ concentration that was required to reduce the nerve-stimulated force to 50% (Mg50) under the four different conditions (see Table 5).
While the use of tubocurarine mimics conditions with reduced neuromuscular transmission due to post-synaptic dysfunction (myasthenia gravis, neuromuscular blockade), the experiments with elevated extracellular Mg^2+ mimics conditions with pre-synaptic dysfunction akin to a range of neuromuscular disorders including Lambert Eaton syndrome, motor neuron disorders and polyneuropathy. […] Based on this it was determined whether recovery of nerve-stimulated force at elevated extracellular Mg^2+ with CIC-1 inhibiting compounds could be added to force recovery with 3,4-AP. […] To quantify the effect of compounds on Mg^2+ sensitivity the force at the different Mg^2+ concentrations was determined. […]

[8] = test system: isolated human muscles; details: human muscle; 150 μM (FIG. 8A)
[9] = test system: rats; experiment: Rotarod running performance in passive myasthenia gravis induced with MAB35 monoclonal antibody; format: in vivo, rat; details: MAB35 model, compared with sham
Procedure: FIG. 10. […] Prior to I.P. injection of MAB35 the animals had been familiarized to the rotarod over three training sessions distributed over two days. […] After this treatment performance was monitored every second hour. *Indicates significant different as evaluated using student t-test.
as §3
In experiments with MAB35, animals were first familiarized with the rotarod over two consecutive days and then injected I.P. with MAB35. After injection, rotarod performance was then again monitored regularly over the consecutive two days. […] A considerable number of animals, however, became moribund failing to walk and they had altered ventilation (rapid) and pronounced ptosis. These animals were not included in experiments. […]

[10] = 150 μM compound, % change in AUC force compared to AUC after 40 min in tubocurarine, before addition
[11] = % change in AUC force compared to AUC after 40 min in tubocurarine, before addition

## CC(C(=O)O)S(=O)(=O)c1ccc(F)cc1 (stereo not shown) [Compound C6, 2-(4-fluorobenzenesulfonyl)propanoic acid]
[1]; [10]
  150 μM % change after addition: −8%
[1]; [11]
  500 μM % change after addition: 9%

## CCC(Oc1ccc(Cl)cc1)C(=O)O (stereo not shown) [Compound C7, 2-(4-chlorophenoxy)butanoic acid]
[1]; [10]
  150 μM % change after addition: 0%
[1]; [11]
  500 μM % change after addition: 40%

## COCC(C)C(Oc1ccc(Br)cc1)C(=O)O (stereo not shown) [Compound C21, 2-(4-bromophenoxy)-4-methoxy-3-methylbutanoic acid]
[1]; [10]
  150 μM % change after addition: 7%
[1]; [11]
  500 μM % change after addition: 36%

## O=C(O)c1c2ccccc2cc2ccccc12 [Compound 9-AC, reference compound]
[2]; 9-AC added at elevated Mg2+ (FIG. 2B)
  recovery of force and M-wave signal: marked recovery of both force and M-wave signal
[1]; 9-AC added after tubocurarine (FIG. 2A)
  recovery of force and M-wave signal: marked recovery of both force and M-wave signal

## C[C@H](OCc1ccccc1)C(=O)O [Compound C5, (2S)-2-(benzyloxy)propanoic acid]
[1]; [10]
  150 μM % change after addition: 1%
[1]; [11]
  500 μM % change after addition: 42%

## Cl.NCC(Oc1ccc(F)cc1)C(=O)O (stereo not shown) [Compound C9, 3-amino-2-(4-fluorophenoxy)propanoic acid hydrochloride]
[1]; [10]
  150 μM % change after addition: −13%
[1]; [11]
  500 μM % change after addition: 5%

## CC(Oc1ccc(Cl)cc1)C(=O)Oc1ccc(Cl)cc1 (stereo not shown) [Compound C11, 4-chlorophenyl 2-(4-chlorophenoxy)propanoate]
[1]
  150 μM % change after addition: 54%

## C[C@H](Oc1ccc(Br)cc1)C(=O)O [Compound C8, (2S)-2-(4-bromophenoxy)propanoic acid]
[3]
  nerve-stimulated contractile force, % of force before rocuronium: 81±4%
[4]
  CI_obs: 48.69 mL/h
  VD_obs: 259.62 mL
[5]
  EPP amplitude compared to control conditions: significantly larger EPPs
[6]
  increase in running distance on Day Two compared to Day One: around 150%
[2]; 50 μM compound, 3.5 mM Mg2+, % change in AUC force vs column 3 (after 70 min at elevated Mg2+)
  50 μM % change after addition: 13 ± 4%
[2]; 100 μM compound, 3.5 mM Mg2+, % change in AUC force vs column 3 (after 70 min at elevated Mg2+)
  100 μM % change after addition: 26 ± 5%
[1]; [10]
  150 μM % change after addition: 23%
[7]
  effect of combination on recovery of neuromuscular transmission: unexpected synergistic effect
[8]
  contractile force at elevated K+ and TTX: markedly recovery
[9]; 20 mg/kg I.P.
  rotarod running performance after injection: decline was reduced
[9]; 30 mg/kg I.P.
  rotarod running performance after injection: clear recovery of performance
